This is an account of results in paper PMC3755750 (Cancer chemotherapy and pharmacology, 2013).

Like-named read-outs stand apart in the source and are kept apart here. Where only a bound is given, the exact number is not on record here.

One data set relates to CYP3A4. To be noted: human liver microsomes; cited from earlier work.
Another data set relates to CYP2D6. The note with it: human liver microsomes; cited from earlier work. On the technique in general: Microsomes from liver hold many membrane-bound enzymes, among them those of drug oxidation.
For data set [1] the following is noted: iv dosing; cited from earlier work.
The subject of a further data set is P-glycoprotein (P-gp). To be noted: in vitro; cited from earlier work.
The conditions of data set [2]: concomitant CYP3A4 inhibitor ketoconazole; cited from earlier work.
In the next data set the test system is CYP2C19. The note with it: human liver microsomes; cited from earlier work.
For data set [3] the following is noted: cited from earlier work; for Fa, fraction absorbed / Bioavailability / Fraction of dose absorbed: mice; for Fa, fraction absorbed: fixed in the PBPK model; for Bioavailability: oral.
The format of data set [4] is in vivo, mice (BALB/c, CB17 SCID, tumor-bearing CB17 SCID). To be noted: for Tmax: BALB/c, mouse, po; for Dose proportionality of Cmax in plasma and tissues: across mouse strains, sorafenib: all tissues except the tumor; for ka, absorption rate constant: fitted to Study#1 data, then fixed.
The conditions of data set [5]: cited from earlier work.
For data set [6] the following is noted: ref Pubchem Compound; cited from earlier work.
The mark [7] stands for this setting: CB17-SCID, plasma and most tissues.

`CNC(=O)c1cc(Oc2ccc(NC(=O)Nc3ccc(Cl)c(C(F)(F)F)c3)cc2)ccn1` [sorafenib, Sorafenib]: in the data set with CYP3A4, the CYP3A4 inhibition result was “moderate inhibitor”. For the same compound, in the data set on CYP2D6, the CYP2D6 inhibition result is “moderate inhibitor”. The “Partition coefficient K for brain, calculated” value in data set [1] is recorded as 0.02. Further, the P-gp substrate character entry in the data set on P-glycoprotein (P-gp) was “weak P-glycoprotein (P-gp) substrate”. Also, the “Change in Cmax and exposure, adverse events” value in data set [2] is “lack of clinically relevant adverse events or change in Cmax and exposure”. Besides, in the data set on CYP2C19, the CYP2C19 inhibition entry is “moderate inhibitor”. Besides, the “Dose proportionality in Cmax and AUC” value in data set [3] (CD-1 mice, at the doses tested) was “dose proportionality”. Also, in [3] (CD-1 mice), the Terminal half-life is 3.2 to 4.2 h and the time to peak (Tmax) is 1 to 1.6 h. In addition, in data set [3], the “Fa, fraction absorbed” value was 0.920; the Bioavailability is 80%; the “Fraction of dose absorbed” value is 92%. Besides, the Tmax in [4] (CB17-SCID, GI tract) came to 1 h. Further, the Tmax in data set [4] (setting [7]) stood at 6 h. Further, in data set [4] (PBPK population mean, mice), the “Kf, partition coefficient adipose” value amounted to 0.624; the “Kmu, partition coefficient muscle” value was 0.356; the “Ksk, partition coefficient skin” value is reported as 0.361. The “Clint, hepatic clearance” value in data set [4] (PBPK population mean, oral dosing, mice) was 6.64 mL/h. In addition, in [4], the “Dose proportionality of Cmax in plasma and tissues” value was “dose-proportional”; the “ka, absorption rate constant” value came to 3.83 h⁻¹. Besides, the “Time detected in plasma and all tissues after the last dose” value in [4] (oral dosing) is listed as “up to 24 h”. The “Increase in tumor exposure” value in data set [4] (twofold increase in sorafenib dose) is reported as “tenfold”.
Regarding `CO[C@H]1C[C@@H]2CC[C@@H](C)[C@@](O)(O2)C(=O)C(=O)N2CCCC[C@H]2C(=O)O[C@H]([C@H](C)C[C@@H]2CC[C@@H](OCCO)[C@H](OC)C2)CC(=O)[C@H](C)/C=C(\C)[C@@H](O)[C@@H](OC)C(=O)[C@H](C)C[C@H](C)/C=C/C=C/C=C/1C` [everolimus, Everolimus], in data set [5] (concomitant strong CYP inhibitor ketoconazole, humans), the “Increase of everolimus AUC” value is on record as 15 fold. Moreover, the “Increase of everolimus AUC” value in [5] (moderate CYP inhibitors erythromycin, verapamil, cyclosporine) is reported as 2.7–4.5 fold. Also, the “Change in everolimus AUC” value in data set [5] (weak inhibitor atorvastatin) is “no change”. For the same compound, in [6], the “log P” value is given as 5.9. In addition, in data set [3], the “Fa, fraction absorbed” value is recorded as 0.12; the Bioavailability was 5%; the “Fraction of dose absorbed” value was 12%. Besides, the Tmax in data set [4] (setting [7]) is 1 h. The Tmax in data set [4] (adipose and skin, 5 mg/kg) is no more than 6 h. Also, in [4] (PBPK population mean, mice), the “Kbr, partition coefficient brain” value is given as 0.018; the “Kmu, partition coefficient muscle” value is 0.105; the “Ksp, partition coefficient spleen” value turned out to be 0.361. Further, in data set [4], the “Dose proportionality of Cmax in plasma and tissues” value is “dose-proportional”; the “ka, absorption rate constant” value is 9.45 h⁻¹. Also, the “Time detected in plasma and all tissues after the last dose” value in data set [4] (oral dosing) was “up to 24 h”. Further, the “Ktu, partition coefficient tumor” value in data set [4] (patient-derived primary pancreatic adenocarcinoma explants in SCID mice) was found to be 0.480. The “PK (AUC) given alone versus in combination” value in data set [4] (student's t test of AUCs from each study, mice) is recorded as “no statistically significant difference”.

A word on the Tmax: it is the time from dosing to the highest level. In general, log P refers to a log measure of how a compound divides between an organic and an aqueous phase.
